Test results from US20230091888A1, “HERBICIDE COMBINATIONS COMPRISING GLUFOSINATE AND SELECTED PPO INHIBITORS” (BASF SE, priority 2020, published 2023).

Experiments:
Test in all cases: Greenhouse post-emergence weed control, percent injury vs untreated control
Format in all cases: in vivo
Conditions in all cases: 19 DAT
[1] = test system: Amaranthus tuberculatus (AMATU)
[2] = test system: Amaranthus Palmeri (AMAPA)
[3] = test system: Ambrosia artemisiifolia (AMBEL)
[4] = test system: Hordeum vulgare (HORVS)
[5] = test system: Galium aparine (GALAP)
[6] = test system: Echinochloa crus-galli (ECHCG)

## C#CCN(C)c1c(C#N)cnn1-c1nn2c(c1Cl)CCCC2 [Pyraclonil]
[1]; 1.5625 g ai/ha
  Solo pyraclonil (1.5625 g ai/ha) % activity: 20%
[1]; 6.25 g ai/ha
  Solo Pyraclonil (6.25 g ai/ha) % activity: 35%
[2]; 3.125 g ai/ha
  Solo pyraclonil (3.125 g ai/ha) % activity: 30%
[2]; 6.25 g ai/ha
  Solo Pyraclonil (6.25 g ai/ha) % activity: 20%
[3]; 1.5625 g ai/ha
  Solo pyraclonil (1.5625 g ai/ha) % activity: 25%
[3]; 6.25 g ai/ha
  Solo Pyraclonil (6.25 g ai/ha) % activity: 65%
[4]; 3.125 g ai/ha
  Solo pyraclonil (3.125 g ai/ha) % activity: 0%

## N#Cc1cnn(-c2nn3c(c2Cl)CCCC3)c1NCC1CC1 [cyclopyranyl, cyclopyranil]
[5]; 6.25 g ai/ha
  Solo cyclopyranyl (6.25 g ai/ha) % activity: 65%
[1]; 6.25 g ai/ha
  Solo cyclopyranyl (6.25 g ai/ha) % activity: 65%
[2]; 1.5625 g ai/ha
  Solo cyclopyranyl (1.5625 g ai/ha) % activity: 10%
[2]; 3.125 g ai/ha
  Solo cyclopyranyl (3.125 g ai/ha) % activity: 10%
[2]; 6.25 g ai/ha
  Solo cyclopyranyl (6.25 g ai/ha) % activity: 25%
[6]; 6.25 g ai/ha
  Solo cyclopyranyl (6.25 g ai/ha) % activity: 25%
[4]; 6.25 g ai/ha
  Solo cyclopyranyl (6.25 g ai/ha) % activity: 15%

## Oxadiargyl
[1]; 6.25 g ai/ha
  Solo Oxadiargyl (6.25 g ai/ha) % activity: 40%
[2]; 3.125 g ai/ha
  Solo Oxadiargyl (3.125 g ai/ha) % activity: 40%
[2]; 6.25 g ai/ha
  Solo Oxadiargyl (6.25 g ai/ha) % activity: 30%
[3]; 3.125 g ai/ha
  Solo Oxadiargyl (3.125 g ai/ha) % activity: 20%
[3]; 6.25 g ai/ha
  Solo Oxadiargyl (6.25 g ai/ha) % activity: 10%
[6]; 3.125 g ai/ha
  Solo Oxadiargyl (3.125 g ai/ha) % activity: 15%

## CP(=O)(O)CCC(N)C(=O)O (racemic) [Glufosinate, (2RS)-2-amino-4-[hydroxy(methyl)phosphinoyl]butyric acid]
[5]; Galium aparine, 456 h, 50 g ai/ha, read-out: Solo Glufosinate (50 g ai/ha) % activity
  inhibition at 50 g/ha: 30%
[1]; Amaranthus tuberculatus, 456 h, 50 g ai/ha, read-out: Solo Glufosinate (50 g ai/ha) % activity
  inhibition at 50 g/ha: 40%
[1]; Amaranthus tuberculatus, 456 h, 100 g ai/ha, read-out: Solo Glufosinate (100 g ai/ha) % activity
  inhibition at 100 g/ha: 70%
[1]; Amaranthus tuberculatus, 456 h, 200 g ai/ha, read-out: Solo Glufosinate (200 g ai/ha) % activity
  inhibition at 200 g/ha: 90%
[2]; Amaranthus palmeri, 456 h, 50 g ai/ha, read-out: Solo Glufosinate (50 g ai/ha) % activity
  inhibition at 50 g/ha: 35%
[2]; Amaranthus palmeri, 456 h, 100 g ai/ha, read-out: Solo Glufosinate (100 g ai/ha) % activity
  inhibition at 100 g/ha: 30%
[2]; Amaranthus palmeri, 456 h, 200 g ai/ha, read-out: Solo Glufosinate (200 g ai/ha) % activity
  inhibition at 200 g/ha: 80%
[3]; Ambrosia artemisiifolia, 456 h, 50 g ai/ha, read-out: Solo Glufosinate (50 g ai/ha) % activity
  inhibition at 50 g/ha: 40%
[6]; Echinochloa crus-galli, 456 h, 50 g ai/ha, read-out: Solo Glufosinate (50 g ai/ha) % activity
  inhibition at 50 g/ha: 10%
[6]; Echinochloa crus-galli, 456 h, 100 g ai/ha, read-out: Solo Glufosinate (100 g ai/ha) % activity
  inhibition at 100 g/ha: 25%
[6]; Echinochloa crus-galli, 456 h, 200 g ai/ha, read-out: Solo Glufosinate (200 g ai/ha) % activity
  inhibition at 200 g/ha: 70%
[4]; Hordeum vulgare, 456 h, 100 g ai/ha, read-out: Solo Glufosinate (100 g ai/ha) % activity
  inhibition at 100 g/ha: 0%
[4]; Hordeum vulgare, 456 h, 200 g ai/ha, read-out: Solo Glufosinate (200 g ai/ha) % activity
  inhibition at 200 g/ha: 30%
